Assay results as given in paper PMC7158045 (BMC Plant Biology, 2020).
Structures can show the parent of a compound that is named as a salt. Where two headings read alike, the source gives them in different places.

Experiments:
Assay in all cases: biochemical
ZmDRIK1-K217-P492 = molecular target: T1, ZmDRIK1-K217-P492 (Zea mays, UniProt C0P4K9)
T1 construct: kinase domain, K217-P492
T1 sequence (C0P4K9 1-514): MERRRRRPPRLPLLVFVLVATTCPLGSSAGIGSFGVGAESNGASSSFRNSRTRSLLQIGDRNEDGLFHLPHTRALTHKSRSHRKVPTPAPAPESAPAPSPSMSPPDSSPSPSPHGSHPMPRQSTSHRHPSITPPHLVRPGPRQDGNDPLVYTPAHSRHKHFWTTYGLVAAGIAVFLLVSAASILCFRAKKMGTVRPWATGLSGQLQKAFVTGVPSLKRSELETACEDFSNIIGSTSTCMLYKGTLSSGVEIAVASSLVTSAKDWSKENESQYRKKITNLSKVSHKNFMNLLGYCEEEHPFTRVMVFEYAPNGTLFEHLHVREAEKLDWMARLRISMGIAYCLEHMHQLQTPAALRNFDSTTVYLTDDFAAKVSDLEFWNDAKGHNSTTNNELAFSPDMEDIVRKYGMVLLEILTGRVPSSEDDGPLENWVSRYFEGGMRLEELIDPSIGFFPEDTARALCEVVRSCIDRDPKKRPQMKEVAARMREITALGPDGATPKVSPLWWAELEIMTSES

[1] = molecular target: T2, ZmDRIK1 (DROUGHT RESPONSIVE INACTIVE KINASE 1), kinase domain (Zea mays, UniProt C0P4K9); conditions: DSF, Boltzmann fit, 0.1% DMSO; for ΔTm at 10 µM: read-out: dTm B, sheet ZmDRIK1-R187-S514;; for dTm B: sheet ZmDRIK1-R187-S514;, 10 µM, binder
T2 construct: gene ZEAMMB73_Zm00001d028770; ZmDRIK1-KD R187-S514 (kinase domain)
T2 sequence (C0P4K9 187-514): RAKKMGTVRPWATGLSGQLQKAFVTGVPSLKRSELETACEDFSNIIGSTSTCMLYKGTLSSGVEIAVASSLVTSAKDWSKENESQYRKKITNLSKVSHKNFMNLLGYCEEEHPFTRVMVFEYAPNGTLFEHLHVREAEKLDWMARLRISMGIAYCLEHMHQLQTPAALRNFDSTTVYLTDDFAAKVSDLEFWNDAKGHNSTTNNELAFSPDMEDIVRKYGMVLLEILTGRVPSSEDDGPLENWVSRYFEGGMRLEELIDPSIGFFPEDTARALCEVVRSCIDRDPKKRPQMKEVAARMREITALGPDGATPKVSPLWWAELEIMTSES

ZmDRIK1-K217-S514 = molecular target: T3, ZmDRIK1-K217-S514 (Zea mays, UniProt C0P4K9)
T3 construct: kinase domain, K217-S514
T3 sequence (C0P4K9 1-514): T1 sequence (C0P4K9 1-514)

ZmDRIK1-R187-P492 = molecular target: T4, ZmDRIK1-R187-P492 (Zea mays, UniProt C0P4K9)
T4 construct: kinase domain, R187-P492
T4 sequence (C0P4K9 1-514): T1 sequence (C0P4K9 1-514)

[2] = read-out: dTm B, sheet ZmDRIK1-K217-P492;, DSF, Boltzmann fit, 0.1% DMSO
[3] = read-out: dTm B, sheet ZmDRIK1-K217-S514;, DSF, Boltzmann fit, 0.1% DMSO
[4] = read-out: dTm B, DSF, Boltzmann fit, 0.1% DMSO

| Structure (SMILES) | ΔTm at 10 µM (ZmDRIK1-K217-P492; [2]) [°C] | ΔTm at 10 µM [1] [°C] | ΔTm at 10 µM (ZmDRIK1-K217-S514; [3]) [°C] | ΔTm at 10 µM (ZmDRIK1-R187-P492; [4]) [°C] | further results |
| --- | --- | --- | --- | --- | --- |
| COC[C@H]1OC(=O)c2coc3c2[C@@]1(C)C1=C(C3=O)[C@@H]2CCC(=O)[C@@]2(C)C[C@H]1OC(C)=O [Wortmannin] | -1.08 | -0.735 | -0.299 | -0.289 |  |
| C#Cc1cccc(Nc2ncnc3cc4c(cc23)OCCOCCOCCO4)c1 [Icotinib] | -1.1 | -0.618 | -0.34 | -0.388 |  |
| S=C(NCc1ccc2c(c1)OCO2)N1CCN(c2ncnc3c2oc2ccccc23)CC1 [Amuvatinib (MP-470)] | 9.06 |  | -3.2 | -10.8 |  |
| CN1CCN(c2ccc3nc(-c4c(N)c5c(F)cccc5[nH]c4=O)[nH]c3c2)CC1 [Dovitinib (TKI-258) Dilactic Acid] |  |  |  |  | dTm B [1]: -0.2117 degC |
| O=c1c(-c2ccc(O)cc2)coc2cc(O)cc(O)c12 [Genistein] | -18.8 |  | -13.4 | -17.5 |  |
| COc1c(C)c(C(=O)c2ccc(N)c(C(=O)O)c2)n2ccccc12 [SSR128129E] | -0.939 | -0.884 | -0.406 |  |  |
| COc1cc(Nc2ncc(F)c(Nc3ccc4c(n3)NC(=O)C(C)(C)O4)n2)cc(OC)c1OC [R406] |  |  |  |  | dTm B [1]: -1.004 degC |
| O=C(NOCC1CC1)c1ccc(F)c(F)c1Nc1ccc(I)cc1Cl [PD184352 (CI-1040)] | -1.2 |  | 0.792 | -0.348 |  |
| NS(=O)(=O)c1ccc(N/C=C2\C(=O)Nc3ccc4ncsc4c32)cc1 [GW297361X] |  | -0.74 |  |  |  |
| COc1cc2nccc(Oc3ccc(NC(=O)Nc4ccc(F)cc4F)c(F)c3)c2cc1OC [Ki8751] | -0.321 |  | -0.589 | -0.397 |  |
| COc1cc2c(Oc3ccc(NC(=O)C4(C(=O)Nc5ccc(F)cc5)CC4)cc3F)ccnc2cc1OCCCN1CCOCC1 [Foretinib (GSK1363089)] | -14.9 |  | -14.7 | 5.58 |  |
| CN(c1ncccc1CNc1nc(Nc2ccc3c(c2)CC(=O)N3)ncc1C(F)(F)F)S(C)(=O)=O [PF-562271] |  |  |  |  | dTm B [1]: -0.5293 degC |
| COc1ccc(-c2ccc3ncc4c(c3c2)n(-c2ccc(N3CCNCC3)c(C(F)(F)F)c2)c(=O)n4C)cn1 [BGT226 (NVP-BGT226)] | -0.378 |  | 0.245 | -0.244 |  |
| N#CC[C@H](C1CCCC1)n1cc(-c2ncnc3[nH]ccc23)cn1 [Ruxolitinib (INCB018424)] |  |  |  |  | dTm B [1]: -0.7708 degC |
| Cc1ccc(NC(=O)c2cccc(C(C)(C)C#N)c2)cc1Nc1ccc2ncn(C)c(=O)c2c1 [AZ 628] | -0.776 |  | -0.322 | -0.122 |  |
| CS(=O)(=O)CCNCc1ccc(-c2ccc3ncnc(Nc4ccc(OCc5cccc(F)c5)c(Cl)c4)c3c2)o1 [Lapatinib (GW-572016) Ditosylate] | -0.876 |  | -16 | 1.26 |  |

| Structure (SMILES) | ΔTm at 10 µM (ZmDRIK1-K217-P492; [2]) [°C] | ΔTm at 10 µM [1] [°C] | ΔTm at 10 µM (ZmDRIK1-K217-S514; [3]) [°C] | ΔTm at 10 µM (ZmDRIK1-R187-P492; [4]) [°C] | further results |
| --- | --- | --- | --- | --- | --- |
| Cc1ccccc1-n1c(Cn2ncc3c(N)ncnc32)nc2cccc(C)c2c1=O [PIK-293] | -1.04 | -1.14 |  | -0.695 |  |
| Cn1c(Nc2ccc(C(F)(F)F)cc2)nc2cc(Oc3ccnc(-c4ncc(C(F)(F)F)[nH]4)c3)ccc21 [RAF265 (CHIR-265)] | 0.39 |  | 10.1 | -2.04 |  |
| CC(C)(C)c1nc(-c2cccc(NS(=O)(=O)c3c(F)cccc3F)c2F)c(-c2ccnc(N)n2)s1 [Dabrafenib (GSK2118436)] | -1.14 |  | -0.366 | -0.533 |  |
| COc1cc(Nc2ncc(F)c(Nc3ccc4c(n3)NC(=O)C(C)(C)O4)n2)cc(OC)c1OC [R406 (free base)] |  |  |  |  | dTm B [1]: -0.8381 degC |
| N#CC[C@H](C1CCCC1)n1cc(-c2ncnc3[nH]ccc23)cn1 [S-Ruxolitinib (INCB018424)] |  |  |  |  | dTm B [1]: -0.5823 degC |
| Cc1ccc(Nc2nccc(N(C)c3ccc4c(C)n(C)nc4c3)n2)cc1S(N)(=O)=O [Pazopanib HCl (GW786034 HCl)] |  |  |  |  | dTm B [1]: -0.83 degC |
| Nc1ccc(-c2ccc3ncc4ccc(=O)n(-c5cccc(C(F)(F)F)c5)c4c3c2)cn1 [Torin 2] | -0.531 |  | -0.322 | -0.3 |  |
| CCc1cc(Nc2nccc(-c3c(-c4ccc(OC)c(C(=O)Nc5c(F)cccc5F)c4)nc4ccccn34)n2)c(OC)cc1N1CCC(N2CCN(S(C)(=O)=O)CC2)CC1 [GSK1904529A] | -0.895 | 0.265 | -0.386 |  |  |
| CNC(=O)Nc1ccc(-c2nc(N3CC4CCC(C3)O4)c3cnn(C4CCC5(CC4)OCCO5)c3n2)cc1 [WYE-125132 (WYE-132)] | -0.91 | -0.649 | -0.412 |  |  |
| CN(c1ncccc1CNc1nc(Nc2ccc3c(c2)CC(=O)N3)ncc1C(F)(F)F)S(C)(=O)=O [PF-00562271] |  |  |  |  | dTm B [1]: -0.8176 degC |
| COc1ncccc1-c1cnn2ccc(N3CCN(C(=O)OC(C)C)CC3)nc12 [LP-935509 (AAK1)] |  |  |  |  | ΔTm at 10 µM (ZmDRIK1-K217-P492; read-out: dTm B): -0.638 °C; ΔTm at 10 µM (ZmDRIK1-K217-S514; read-out: dTm B): -0.536 °C; ΔTm at 10 µM (ZmDRIK1-R187-P492; read-out: dTm B): -0.447 °C |
| CN1CCN(c2ccc3nc(-c4c(N)c5c(F)cccc5[nH]c4=O)[nH]c3c2)CC1 [Dovitinib (TKI-258)] |  |  |  |  | dTm B [1]: -0.003273 degC |
| CNC(=O)c1cc(Oc2ccc(NC(=O)Nc3ccc(Cl)c(C(F)(F)F)c3)cc2)ccn1 [Sorafenib Tosylate] |  | -12 |  |  |  |
| COc1cc2nccc(Oc3ccc(NC(=O)C4(C(=O)Nc5ccc(F)cc5)CC4)cc3)c2cc1OC [Cabozantinib malate (XL184)] |  | -14.9 |  |  |  |
| Cc1ccc(Nc2nccc(N(C)c3ccc4c(C)n(C)nc4c3)n2)cc1S(N)(=O)=O [Pazopanib] |  |  |  |  | dTm B [1]: -0.7756 degC |
| C[C@@H](Oc1cc(-c2cnn(C3CCNCC3)c2)cnc1N)c1c(Cl)ccc(F)c1Cl [Crizotinib (PF-02341066)] |  | -0.958 | -0.67 | -0.336 |  |

Now from value to compound, other results behind:

| ΔTm at 10 µM (ZmDRIK1-K217-P492; [2]) [°C] | ΔTm at 10 µM [1] [°C] | ΔTm at 10 µM (ZmDRIK1-K217-S514; [3]) [°C] | ΔTm at 10 µM (ZmDRIK1-R187-P492; [4]) [°C] | Structure (SMILES) | further results |
| --- | --- | --- | --- | --- | --- |
| -1.23 | -0.744 | -0.431 | -0.522 | Cc1cc(Nc2ncc(Cl)c(Nc3ccccc3S(=O)(=O)C(C)C)n2)c(OC(C)C)cc1C1CCNCC1 [LDK378] |  |
| -0.668 | -0.773 | -0.119 | -0.00437 | COc1ccc(-c2ccc3c(N4CCOC[C@@H]4C)nc(N4CCOC[C@@H]4C)nc3n2)cc1CO [AZD8055] |  |
| -1.1 | -0.503 | -0.251 | -0.352 | CC(C)NC[C@@H](C(=O)N1CCN(c2ncnc3c2[C@H](C)C[C@H]3O)CC1)c1ccc(Cl)cc1 [GDC-0068] |  |
| -4.29 | -3.39 | -2.48 | -2 | C[C@H](NC(=O)/C(C#N)=C/c1cccc(Br)n1)c1ccccc1 [WP1066] |  |
| -0.987 |  | -0.362 | -0.259 | COc1cc(N2CCC(N3CCN(C)CC3)CC2)ccc1Nc1ncc(Cl)c(Nc2ccccc2P(C)(C)=O)n1 [AP26113] |  |
| -0.666 | -0.759 | -0.219 |  | CCc1cncnc1N1CCN(Cc2nc3ccc(C(F)(F)F)cc3[nH]2)CC1 [PF-4708671] |  |
|  | -0.582 | 0.285 | 0.149 | NC(=O)Nc1sc(-c2ccc(F)cc2)cc1C(N)=O [TPCA-1] |  |
| -1.12 | -1 | -0.402 |  | CN(C[C@@H]1COCCO1)S(=O)(=O)Nc1ccc2ccc3ncc(-c4cnn(C)c4)cc3c(=O)c2c1 [MK-2461] |  |
